Molecular target: cGAS (Homo sapiens, UniProt Q8N884)
Assay: ISD70-driven IP-10 (and IFN-β) production in THP-1 cells, ELISA
Assay type: cell-based
Parameters: endogenous in cells; host or cells: THP-1 (undifferentiated)
Conditions: MOE-modified ASO at 100 nM; averaged IP-10 levels relative to ISD70 condition

Chain of cGAS (Q8N884 whole entry): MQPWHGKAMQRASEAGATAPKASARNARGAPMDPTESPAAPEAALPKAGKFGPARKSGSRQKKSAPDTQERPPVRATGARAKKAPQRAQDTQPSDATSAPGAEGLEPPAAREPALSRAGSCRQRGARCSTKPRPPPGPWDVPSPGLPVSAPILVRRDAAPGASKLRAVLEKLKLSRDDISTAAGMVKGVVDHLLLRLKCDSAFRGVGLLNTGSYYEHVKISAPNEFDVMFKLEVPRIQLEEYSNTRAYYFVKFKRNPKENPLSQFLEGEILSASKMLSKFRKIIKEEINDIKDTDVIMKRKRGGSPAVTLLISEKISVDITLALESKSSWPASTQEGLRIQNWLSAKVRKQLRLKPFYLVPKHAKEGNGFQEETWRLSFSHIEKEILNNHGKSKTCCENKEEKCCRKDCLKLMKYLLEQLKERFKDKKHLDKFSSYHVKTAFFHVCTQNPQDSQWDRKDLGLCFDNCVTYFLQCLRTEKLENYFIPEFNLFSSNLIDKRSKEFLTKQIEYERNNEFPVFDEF

Sequence	cGAS 100 nM
TTGCACACTTCGTACCCAAA (antisense; 2'-MOE modified, pattern not given here) [CAMSAP1-4915 MOE]	0.392
TTGCCATGCTGGCTCGGACT (antisense; 2'-MOE modified, pattern not given here) [CAMSAP1-2584 MOE]	0.518
TTGGCTCGGCTTGCCTACTT (antisense; 2'-MOE modified, pattern not given here) [CAMSAP1-5594 MOE]	0.295

Source: patent publication US20240384268A1, “Oligonucleotides” (Hudson Institute of Medical Research, priority 2021, published 2024)
